pIC50: −log10 of the molar value.
Molecular target: T1, human neutrophil elastase (HNE) (Homo sapiens, UniProt P08246)
T1 construct: purchased Sigma E8140
T1 sequence (P08246 30-247 limits assumed): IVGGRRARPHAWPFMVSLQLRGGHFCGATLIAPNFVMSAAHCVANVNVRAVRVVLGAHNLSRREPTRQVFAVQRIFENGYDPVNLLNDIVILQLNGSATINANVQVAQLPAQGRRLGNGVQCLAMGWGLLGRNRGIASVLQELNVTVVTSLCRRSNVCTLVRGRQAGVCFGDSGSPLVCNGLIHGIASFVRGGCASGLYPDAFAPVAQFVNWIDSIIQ
Assay: HNE Enzyme Assay (fluorogenic peptide substrate MeOSuc-Ala-Ala-Pro-Val-AMC)
Assay type: biochemical
Settings: human leukocyte elastase 0.00072 U/mL, substrate 100 μM, 25° C., 30 minutes, at least two separate experiments; read-out: HNE inhibition (IC50 values)
Protocol: Compounds of this invention were tested for potency in a human neutrophil elastase (HNE) enzyme activity assay.
Assays were performed in 96-well plates in a total assay volume of 100 μL. The final concentration of elastase enzyme (human leukocyte elastase, Sigma E8140) was 0.00072 U/mL. The peptide substrate (MeOSuc-Ala-Ala-Pro-Val-AMC, Calbiochem #324740) was used at a final concentration of 100 μM. The final concentration of DMSO was 1% in the assay buffer (0.05M Tris.HCl, 0.1M NaCl, 0.1M CaCl2, 0.0005% Brij-35, pH 7.5). The enzymatic reaction was started by addition of the enzyme and incubated at 25° C. for 30 minutes. After incubation, the reaction was stopped by addition of soybean trypsin inhibitor (Sigma T9003) at a final concentration of 50 μg/well. Fluorescence was measured using a Molecular Devices fluorescence plate reader using 380 nm excitation and 460 nm emission wavelengths.
A concentration response to each compound was performed and the effect of compound in each experiment was expressed as a percentage inhibition of the control enzyme fluorescence. Dose response curves were plotted and compound potency (IC50) was determined. Compounds were tested in at least two separate experiments.

Compound | pIC50
Cc1c(-c2ccnn2-c2ccc(C#N)cc2)n(C(=O)N[C@@H](C)C(=O)N(C)CCN(C)C)c(=O)n1-c1cccc(C(F)(F)F)c1 [Example 20, 5-[2-(4-Cyano-phenyl)-2H-pyrazol-3-yl]-4-methyl-2-oxo-3-(3-trifluoromethyl-phenyl)-2,3-dihydro-imidazole-1-carboxylic acid {(S)-1-[(2-dimethylamino-ethyl)-methyl-carbamoyl]-ethyl}-amide] | > 9.00
Cc1c(-c2ccnn2-c2ccc(C#N)cc2)n(C(=O)N[C@H](c2ncc(CN(C)C)o2)C(C)C)c(=O)n1-c1cccc(C(F)(F)F)c1 [Example 21, 5-[2-(4-Cyano-phenyl)-2H-pyrazol-3-yl]-4-methyl-2-oxo-3-(3-trifluoromethyl-phenyl)-2,3-dihydro-imidazole-1-carboxylic acid [(S)-1-(5-dimethylaminomethyl-oxazol-2-yl)-2-methyl-propyl]-amide] | > 9.00
CC[C@H](NC(=O)n1c(-c2ccnn2-c2ccc(C#N)cc2)c(C)n(-c2cccc(C(F)(F)F)c2)c1=O)c1ncc(CN(C)C)o1 [Example 22, 5-[2-(4-Cyano-phenyl)-2H-pyrazol-3-yl]-4-methyl-2-oxo-3-(3-trifluoromethyl-phenyl)-2,3-dihydro-imidazole-1-carboxylic acid [(S)-1-(5-dimethylaminomethyl-oxazol-2-yl)-propyl]-amide] | > 9.00
Cc1c(-c2ccnn2-c2ccc(C#N)cc2)n(C(=O)NC2(c3ncc(CN(C)C)o3)CC2)c(=O)n1-c1cccc(C(F)(F)F)c1 [Example 23, 5-[2-(4-Cyano-phenyl)-2H-pyrazol-3-yl]-4-methyl-2-oxo-3-(3-trifluoromethyl-phenyl)-2,3-dihydro-imidazole-1-carboxylic acid [1-(5-dimethylaminomethyl-oxazol-2-yl)-cyclopropyl]-amide] | > 9.00
Cc1c(-c2ccnn2-c2ccc(C#N)cc2)n(C(=O)NC(C)(C)c2ncc(CN(C)C)o2)c(=O)n1-c1cccc(C(F)(F)F)c1 [Example 24, 5-[2-(4-Cyano-phenyl)-2H-pyrazol-3-yl]-4-methyl-2-oxo-3-(3-trifluoromethyl-phenyl)-2,3-dihydro-imidazole-1-carboxylic acid [1-(5-dimethylaminomethyl-oxazol-2-yl)-1-methyl-ethyl]-amide] | > 9.00
Cc1c(-c2ccnn2-c2ccc(C#N)cc2)n(C(=O)NC2(C)CCN(C(=O)CN(C)C)CC2)c(=O)n1-c1cccc(C(F)(F)F)c1 [Example 25, 5-[2-(4-Cyano-phenyl)-2H-pyrazol-3-yl]-4-methyl-2-oxo-3-(3-trifluoromethyl-phenyl)-2,3-dihydro-imidazole-1-carboxylic acid [1-(2-dimethylamino-acetyl)-4-methyl-piperidin-4-yl]-amide] | > 9.00
Cc1c(-c2ccnn2-c2ccc(C#N)cc2)n(C(=O)N[C@H]2CC[C@H](NC(=O)CN(C)C)CC2)c(=O)n1-c1cccc(C(F)(F)F)c1 [Example 26, 5-[2-(4-Cyano-phenyl)-2H-pyrazol-3-yl]-4-methyl-2-oxo-3-(3-trifluoromethyl-phenyl)-2,3-dihydro-imidazole-1-carboxylic acid [trans-4-(2-dimethylamino-acetylamino)-cyclohexyl]-amide] | > 9.00
Cc1c(-c2ccnn2-c2ccc(C#N)cc2)n(C(=O)N[C@H]2CC[C@H](CNC(=O)CN(C)C)CC2)c(=O)n1-c1cccc(C(F)(F)F)c1 [Example 27, 5-[2-(4-Cyano-phenyl)-2H-pyrazol-3-yl]-4-methyl-2-oxo-3-(3-trifluoromethyl-phenyl)-2,3-dihydro-imidazole-1-carboxylic acid {trans-4-[(2-dimethylamino-acetylamino)-methyl]-cyclohexyl}-amide] | > 9.00
Cc1c(-c2ccnn2-c2ccc(C#N)cc2)n(C(=O)N[C@@H](C)C(=O)N(C)C2CCN(C)CC2)c(=O)n1-c1cccc(C(F)(F)F)c1 [Example 28, 5-[2-(4-Cyano-phenyl)-2H-pyrazol-3-yl]-4-methyl-2-oxo-3-(3-trifluoromethyl-phenyl)-2,3-dihydro-imidazole-1-carboxylic acid {(S)-1-[methyl-(1-methyl-piperidin-4-yl)-carbamoyl]-ethyl}-amide] | > 9.00
Cc1c(-c2ccnn2-c2ccc(C#N)cc2)n(C(=O)N[C@H]2CC[C@H](C[N+](C)(C)C)CC2)c(=O)n1-c1cccc(C(F)(F)F)c1 [Example 29, (Trans-4-{[5-[2-(4-cyano-phenyl)-2H-pyrazol-3-yl]-4-methyl-2-oxo-3-(3-trifluoromethyl-phenyl)-2,3-dihydro-imidazole-1-carbonyl]-amino}-cyclohexylmethyl)-trimethyl-ammonium benzene sulfonate] | > 9.00
Cc1c(-c2ccnn2-c2ccc(C#N)cc2)n(C(=O)N[C@H]2CC[C@H](C[N+](C)(C)Cc3ccccc3)CC2)c(=O)n1-c1cccc(C(F)(F)F)c1 [Example 30, Benzyl-(trans-4-{[5-[2-(4-cyano-phenyl)-2H-pyrazol-3-yl]-4-methyl-2-oxo-3-(3-trifluoromethyl-phenyl)-2,3-dihydro-imidazole-1-carbonyl]-amino}-cyclohexylmethyl)-dimethyl-ammonium bromide] | > 9.00
CC[N+](C)(C)C[C@H]1CC[C@H](NC(=O)n2c(-c3ccnn3-c3ccc(C#N)cc3)c(C)n(-c3cccc(C(F)(F)F)c3)c2=O)CC1 [Example 31, (Trans-4-{[5-[2-(4-cyano-phenyl)-2H-pyrazol-3-yl]-4-methyl-2-oxo-3-(3-trifluoromethyl-phenyl)-2,3-dihydro-imidazole-1-carbonyl]-amino}-cyclohexylmethyl)-ethyl-dimethyl-ammonium benzene sulfonate] | > 9.00
Cc1c(-c2ccnn2-c2ccc(C#N)cc2)n(C(=O)NC2CC[N+](C)(C)CC2)c(=O)n1-c1cccc(C(F)(F)F)c1 [Example 32, 4-{[5-[2-(4-Cyano-phenyl)-2H-pyrazol-3-yl]-4-methyl-2-oxo-3-(3-trifluoromethyl-phenyl)-2,3-dihydro-imidazole-1-carbonyl]-amino}-1,1-dimethyl-piperidinium benzenesulfonate] | > 9.00
Cc1c(-c2ccnn2-c2ccc(C#N)cc2)n(C(=O)N[C@@H]2CC[N+](C)(C)C2)c(=O)n1-c1cccc(C(F)(F)F)c1 [Example 33, (R)-3-{[5-[2-(4-Cyano-phenyl)-2H-pyrazol-3-yl]-4-methyl-2-oxo-3-(3-trifluoromethyl-phenyl)-2,3-dihydro-imidazole-1-carbonyl]-amino}-1,1-dimethyl-pyrrolidinium benzenesulfonate] | 8.00 to 9.00
Cc1c(-c2ccnn2-c2ccc(C#N)cc2)n(C(=O)N[C@H]2CC[N+](C)(C)C2)c(=O)n1-c1cccc(C(F)(F)F)c1 [Example 34, (S)-3-{[5-[2-(4-Cyano-phenyl)-2H-pyrazol-3-yl]-4-methyl-2-oxo-3-(3-trifluoromethyl-phenyl)-2,3-dihydro-imidazole-1-carbonyl]-amino}-1,1-dimethyl-pyrrolidinium benzenesulfonate] | > 9.00
Cc1c(-c2ccnn2-c2ccc(C#N)cc2)n(C(=O)NC(C)C2CC[N+](C)(C)CC2)c(=O)n1-c1cccc(C(F)(F)F)c1 (stereo not shown) [Example 35, 4-(1-{[5-[2-(4-Cyano-phenyl)-2H-pyrazol-3-yl]-4-methyl-2-oxo-3-(3-trifluoromethyl-phenyl)-2,3-dihydro-imidazole-1-carbonyl]-amino}-ethyl)-1,1-dimethyl-piperidinium benzene sulfonate] | > 9.00
Cc1c(-c2ccnn2-c2ccc(C#N)cc2)n(C(=O)N[C@H]2C[C@H]3CC[C@@H](C2)[N+]3(C)C)c(=O)n1-c1cccc(C(F)(F)F)c1 [Example 36, (1S,3R,5R)-3-{[5-[2-(4-Cyano-phenyl)-2H-pyrazol-3-yl]-4-methyl-2-oxo-3-(3-trifluoromethyl-phenyl)-2,3-dihydro-imidazole-1-carbonyl]-amino}-8,8-dimethyl-8-azonia-bicyclo[3.2.1]octane benzene sulfonate] | > 9.00
Cc1c(-c2ccnn2-c2ccc(C#N)cc2)n(C(=O)N[C@@H]2C[C@@H]3C[N+](C)(C)C[C@@H]3C2)c(=O)n1-c1cccc(C(F)(F)F)c1 [Example 37, (3aS,5R,6aR)-5-{[5-[2-(4-Cyano-phenyl)-2H-pyrazol-3-yl]-4-methyl-2-oxo-3-(3-trifluoromethyl-phenyl)-2,3-dihydro-imidazole-1-carbonyl]-amino}-2,2-dimethyl-octahydro-cyclopenta[c]pyrrolium benzene sulfonate] | > 9.00
Cc1c(-c2ccnn2-c2ccc(C#N)cc2)n(C(=O)N[C@@H](C)c2cc[n+](C)cc2)c(=O)n1-c1cccc(C(F)(F)F)c1 [Example 38, 4-((S)-1-{[5-[2-(4-Cyano-phenyl)-2H-pyrazol-3-yl]-4-methyl-2-oxo-3-(3-trifluoromethyl-phenyl)-2,3-dihydro-imidazole-1-carbonyl]-amino}-ethyl)-1-methyl-pyridinium benzene sulfonate] | > 9.00

— patent US10023558B2, “Compounds” (CHIESI FARMACEUTICI S.P.A., priority 2016, dated 2018)
